# Target: SARS2 M^pro (Severe acute respiratory syndrome coronavirus 2, UniProt P0DTD1, P3395H)
# Format: biochemical, SARS-CoV-2
Structure (SMILES),M^pro inhibition activity (in words),% inhibition (20 µM) biochemical
Cc1cccc(OCCNC(=O)C(C)Cl)c1 (stereo not shown),lost all activity,–
"CC(C)(C)NC(=O)N[C@H](C(=O)N1C[C@H]2[C@@H]([C@H]1C(=O)NC(CC1CCC1)C(=O)C(N)=O)C2(C)C)C(C)(C)C (stereo partly shown) [Boceprevir, reference compound]",–,73.0971%
"O=C(CCCN1C(=O)/C(=C\c2ccco2)SC1=S)Nc1cc(Cl)ccc1O [MWAC-0000351, Oc1ccc(Cl)cc1NC(=O)CCCN2C(=S)S\C(=C\c3occc3)\C2=O]",–,2.86%
"Cc1nn(CC(=O)NCc2ccc3c(c2)OCO3)c(=O)c2c1cnn2C(C)(C)C [MWAC-0000539, CC1=NN(CC(=O)NCc2ccc3OCOc3c2)C(=O)c4c1cnn4C(C)(C)C]",–,19%
"COc1cccc(NC(=O)Cn2c(=O)n(C)c(=O)n(-c3ccc(Oc4ccc(SC(F)(F)F)cc4)c(C)c3)c2=O)c1 [MWAC-0001087, COc1cccc(NC(=O)CN2C(=O)N(C)C(=O)N(C2=O)c3ccc(Oc4ccc(SC(F)(F)F)cc4)c(C)c3)c1]",–,3%
"O=S(=O)(O)CCCN1/C(=C/C=C2\CCC(/C=C/c3sc4ccccc4[n+]3CCCS(=O)(=O)O)=C2N(c2ccccc2)c2ccccc2)Sc2ccccc21 [MWAC-0001204, OS(=O)(=O)CCCN1\C(=C\C=C\2/CCC(=C2N(c3ccccc3)c4ccccc4)\C=C\c5sc6ccccc6[n+]5CCCS(=O)(=O)O)\Sc7ccccc17]",–,8%
"Cc1ccc2nc(-c3ccc(NC(=O)CCOc4ccccc4)cc3)sc2c1 [MWAC-0001713, Cc1ccc2nc(sc2c1)c3ccc(NC(=O)CCOc4ccccc4)cc3]",–,14%
"CCOc1ccc2nc(SC3CC(=O)N(c4ccccc4C(F)(F)F)C3=O)sc2c1 (stereo not shown) [MWAC-0001714, CCOc1ccc2nc(SC3CC(=O)N(C3=O)c4ccccc4C(F)(F)F)sc2c1]",–,6%
"Cc1cc(C)c2oc(-c3ccc(C)c(N)c3)nc2c1 [MWAC-0001715, Cc1cc(C)c2oc(nc2c1)c3ccc(C)c(N)c3]",–,0%
"Fc1cccc(/N=c2\oc3ccccc3cc2-c2nc3ccccc3[nH]2)c1 [MWAC-0001716, Fc1cccc(c1)\N=C\2/Oc3ccccc3C=C2c4nc5ccccc5[nH]4]",–,0%
"O=C(Nc1ccc(Cl)cc1)N1CCc2ccccc21 [MWAC-0001717, Clc1ccc(NC(=O)N2CCc3ccccc23)cc1]",–,6%
"CCOc1ccccc1C1Nc2ccccc2NC2=C1C(=O)CC(c1ccccc1)C2 (stereo not shown) [MWAC-0001718, CCOc1ccccc1C2Nc3ccccc3NC4=C2C(=O)CC(C4)c5ccccc5]",–,0%
"COc1ccc(C2=NN3C(C2)c2ccccc2OC3c2ccc(C(C)(C)C)cc2)cc1 (stereo not shown) [MWAC-0001719, COc1ccc(cc1)C2=NN3C(C2)c4ccccc4OC3c5ccc(cc5)C(C)(C)C]",–,5%
"CCOc1ccccc1C1Nc2ccccc2NC2=C1C(=O)CC(c1ccc3c(c1)OCO3)C2 (stereo not shown) [MWAC-0001720, CCOc1ccccc1C2Nc3ccccc3NC4=C2C(=O)CC(C4)c5ccc6OCOc6c5]",–,0%
"COc1ccc2ccccc2c1/C=C1/S/C(=N/c2ccccc2Cl)NC1=O [MWAC-0001721, COc1ccc2ccccc2c1\C=C/3\S\C(=N\c4ccccc4Cl)\NC3=O]",–,6%
"CC(C)(C)N1C(=O)c2ccc(C(=O)Nc3cccc(O)c3)cc2C1=O [MWAC-0001722, CC(C)(C)N1C(=O)c2ccc(cc2C1=O)C(=O)Nc3cccc(O)c3]",–,5.66%
"Cc1ccc(-c2cn3ccc4ccccc4c3n2)cc1 [MWAC-0001723, Cc1ccc(cc1)c2cn3ccc4ccccc4c3n2]",–,8%
"COc1ccc(C2=NN3C(C2)c2ccccc2OC3C(C)C)cc1 (stereo not shown) [MWAC-0001724, COc1ccc(cc1)C2=NN3C(Oc4ccccc4C3C2)C(C)C]",–,7%
"Fc1nc(F)c(F)c(SC(=S)N2CCOCC2)c1F [MWAC-0001725, Fc1nc(F)c(F)c(SC(=S)N2CCOCC2)c1F]",–,3.69%
"COc1ccccc1-c1cc(C(F)(F)F)nc(S(=O)(=O)CCCC(=O)Nc2c(F)cc(F)cc2Br)n1 [MWAC-0001726, COc1ccccc1c2cc(nc(n2)S(=O)(=O)CCCC(=O)Nc3c(F)cc(F)cc3Br)C(F)(F)F]",–,43%
"O=C1C(=O)N(Cc2ccc([N+](=O)[O-])cc2)c2ccc(Br)cc21 [MWAC-0001727, [O-][N+](=O)c1ccc(CN2C(=O)C(=O)c3cc(Br)ccc23)cc1]",–,65%
"CC1=C(C(=O)OC(C)C)C(c2ccsc2)C2=C(CC(c3cccs3)CC2=O)N1 (stereo not shown) [MWAC-0001728, CC(C)OC(=O)C1=C(C)NC2=C(C1c3ccsc3)C(=O)CC(C2)c4cccs4]",–,0%
"CC1=C(C(=O)OC(C)C)C(c2ccc(F)cc2)C2=C(CC(c3cccs3)CC2=O)N1 (stereo not shown) [MWAC-0001729, CC(C)OC(=O)C1=C(C)NC2=C(C1c3ccc(F)cc3)C(=O)CC(C2)c4cccs4]",–,0%
"C#CCN1C(=O)C(O)(CC(=O)c2ccc(F)cc2)c2ccccc21 (stereo not shown) [MWAC-0001730, OC1(CC(=O)c2ccc(F)cc2)C(=O)N(CC#C)c3ccccc13]",–,8%
"C#CCN1C(=O)C(O)(CC(=O)c2ccc(Cl)cc2)c2ccccc21 (stereo not shown) [MWAC-0001731, OC1(CC(=O)c2ccc(Cl)cc2)C(=O)N(CC#C)c3ccccc13]",–,5%
"Cc1cc(=O)oc2c(C)c(OCc3ccccc3)ccc12 [MWAC-0001732, CC1=CC(=O)Oc2c(C)c(OCc3ccccc3)ccc12]",–,7%

Structure (SMILES),M^pro inhibition activity (in words),% inhibition (20 µM) biochemical
"CCc1ccc(C2CC(c3ccc(OC)c(OC)c3)=NN2C(C)=O)cc1 (stereo not shown) [MWAC-0001733, CCc1ccc(cc1)C2CC(=NN2C(=O)C)c3ccc(OC)c(OC)c3]",–,7%
"Cc1cccc(/N=C2/NC(=O)/C(=C\c3ccc(N(C)C)cc3)S2)c1 [MWAC-0001734, CN(C)c1ccc(\C=C/2\S\C(=N/c3cccc(C)c3)\NC2=O)cc1]",–,9%
"COC(=O)CSC1=C(C#N)C(c2ccccc2OC)CC(=O)N1 (stereo not shown) [MWAC-0001735, COC(=O)CSC1=C(C#N)C(CC(=O)N1)c2ccccc2OC]",–,4.32%
"CCOC(=O)CS(=O)(=O)c1ccc(C(=O)N2CCN(C(=O)c3ccco3)CC2)cc1[N+](=O)[O-] [MWAC-0001736, CCOC(=O)CS(=O)(=O)c1ccc(cc1[N+](=O)[O-])C(=O)N2CCN(CC2)C(=O)c3occc3]",–,14%
"CCOC(=O)c1[nH]c(C)c(C(=O)Nc2ccccc2SC)c1C [MWAC-0001737, CCOC(=O)c1[nH]c(C)c(C(=O)Nc2ccccc2SC)c1C]",–,3.56%
"C=CCN1C(=O)C(O)(CC(=O)c2ccc(C)cc2)c2cc(Br)ccc21 (stereo not shown) [MWAC-0001738, Cc1ccc(cc1)C(=O)CC2(O)C(=O)N(CC=C)c3ccc(Br)cc23]",–,4.69%
"COc1cccc(-c2cc(C(=O)N3CCCCC3C)no2)c1 (stereo not shown) [MWAC-0001739, COc1cccc(c1)c2onc(c2)C(=O)N3CCCCC3C]",–,2.35%
"Cc1ccc(Cl)cc1-n1c(SCc2ccccc2Cl)nc2[nH]ncc2c1=O [MWAC-0001740, Cc1ccc(Cl)cc1N2C(=Nc3[nH]ncc3C2=O)SCc4ccccc4Cl]",–,9%
"CC(=O)N(/N=C1\Sc2ccccc2C1=O)c1ccccc1C [MWAC-0001741, CC(=O)N(\N=C\1/Sc2ccccc2C1=O)c3ccccc3C]",–,36%
"CCCCOC(=O)c1c(C)oc2ccc(NS(=O)(=O)c3ccc(OC)cc3)cc12 [MWAC-0001742, CCCCOC(=O)c1c(C)oc2ccc(NS(=O)(=O)c3ccc(OC)cc3)cc12]",–,11%
"COc1cccc(C(=O)NN2C(=S)N(c3ccccc3)C(=O)C2CC(N)=O)c1 (stereo not shown) [MWAC-0001743, COc1cccc(c1)C(=O)NN2C(CC(=O)N)C(=O)N(C2=S)c3ccccc3]",–,6%
"CCCCN1C(=O)C(O)(CC(=O)c2cccc(OC)c2)c2cc(Br)ccc21 (stereo not shown) [MWAC-0001744, CCCCN1C(=O)C(O)(CC(=O)c2cccc(OC)c2)c3cc(Br)ccc13]",–,10%
"CCOc1ccccc1C1CC(c2ccccc2)Nc2ncnn21 (stereo not shown) [MWAC-0001745, CCOc1ccccc1C2CC(Nc3ncnn23)c4ccccc4]",–,5.37%
"CN(C)c1ccc(/C=N\Nc2cn[nH]c(=O)c2Cl)cc1 [MWAC-0001746, CN(C)c1ccc(\C=N/NC2=C(Cl)C(=O)NN=C2)cc1]",–,15%
"Cc1c(C(=O)N2CCCCC2C)sc2nc(-c3ccc(F)cc3)cn12 (stereo not shown) [MWAC-0001747, CC1CCCCN1C(=O)c2sc3nc(cn3c2C)c4ccc(F)cc4]",–,5.44%
"CC(C)c1cc(C(=O)Nc2ccc(Br)cc2)no1 [MWAC-0001748, CC(C)c1onc(c1)C(=O)Nc2ccc(Br)cc2]",–,6%
"Cc1ccccc1-c1noc(-c2ccc(O)cc2)n1 [MWAC-0001749, Cc1ccccc1c2noc(n2)c3ccc(O)cc3]",–,9%
"CCN1C(=O)C(=O)c2cc(Cl)ccc21 [MWAC-0001750, CCN1C(=O)C(=O)c2cc(Cl)ccc12]",–,10%
"COc1ccc(C2(C)CC(C)(C)N(C(C)=O)c3ccccc32)cc1 (stereo not shown) [MWAC-0001751, COc1ccc(cc1)C2(C)CC(C)(C)N(C(=O)C)c3ccccc23]",–,4.45%
"CCCN1C(=O)C(O)(CC(=O)c2cc(OC)ccc2OC)c2cc(Br)ccc21 (stereo not shown) [MWAC-0001752, CCCN1C(=O)C(O)(CC(=O)c2cc(OC)ccc2OC)c3cc(Br)ccc13]",–,33%
"CCOc1ccc(C2NC(=O)c3[nH]nc(-c4cccc(OC)c4)c32)cc1 (stereo not shown) [MWAC-0001753, CCOc1ccc(cc1)C2NC(=O)c3[nH]nc(c4cccc(OC)c4)c23]",–,18%
"O=C1NC(=O)C(=Cc2cc(O)ccc2Br)C(=O)N1 [MWAC-0001754, Oc1ccc(Br)c(C=C2C(=O)NC(=O)NC2=O)c1]",–,21%
"CC1CCN(C(=O)/C=C/c2cccc3ccccc23)CC1 [MWAC-0001755, CC1CCN(CC1)C(=O)\C=C\c2cccc3ccccc23]",–,4.32%
"Cc1cccc2c1NC(=O)/C2=C\C(=O)c1cccs1 [MWAC-0001756, Cc1cccc2\C(=C\C(=O)c3cccs3)\C(=O)Nc12]",–,13%
"CCOC(=O)N1CCN(c2nncc(-c3ccc4ccccc4c3)n2)CC1 [MWAC-0001757, CCOC(=O)N1CCN(CC1)c2nncc(n2)c3ccc4ccccc4c3]",–,38%
"CC(=O)Nc1cccc(-c2nc3cc(Cl)ccc3o2)c1 [MWAC-0001758, CC(=O)Nc1cccc(c1)c2oc3ccc(Cl)cc3n2]",–,14%

# Source: article PMC11550483 (2024)
